Results from US10155021B2, “Antimicrobial 4-oxoquinolizines” (Emergent Product Development Gaithersburg Inc., priority 2011, dated 2018).
Values after ≈ are worked out from the molar mass of the structure shown. Read-outs that look alike come from different tables or passages of the source.

How the values were obtained:
[1] = system: S. aureus ATCC 25923; assay: MIC, selected panel of Gram-positive and Gram-negative strains (Example 5); type: cell-based; conditions: Staphylococcus aureus, ATCC25923, read-out: MIC S. aureus ATCC 25923
[2] = system: B. thailandensis E264; assay: microbe, parasite or virus in culture; type: cell-based, Burkholderia thailandensis; conditions: for MIC: Burkholderia thailandensis, E264, read-out: MIC B. thailandensis E264
[3] = system: A. baumannii ATCC 19606; assay: MIC, selected panel of Gram-positive and Gram-negative strains (Example 5); type: cell-based, Acinetobacter baumannii; conditions: for MIC: Acinetobacter baumannii, ATCC19606, read-out: MIC A. baumannii ATCC 19606
[4] = system: S. aureus ATCC 43300 (MRSA, FQ-S); assay: as above; type: cell-based, Staphylococcus aureus
[5] = system: P. aeruginosa ATCC 27853; assay: as above; type: cell-based
[6] = system: S. aureus BAA-1556 (USA300-Type MRSA, FQ-R); assay: as above; type: cell-based, Staphylococcus aureus
[7] = system: E. coli ATCC 25922; assay: as above; type: cell-based, Escherichia coli
[8] = Staphylococcus aureus, read-out: MIC S. aureus ATCC 43300 (MRSA, FQ-S)
[9] = Pseudomonas aeruginosa, ATCC27853, read-out: MIC P. aeruginosa ATCC 27853
[10] = Staphylococcus aureus, read-out: MIC S. aureus BAA-1556 (USA300-Type MRSA, FQ-R)
[11] = Escherichia coli, ATCC25922, read-out: MIC E. coli ATCC 25922
[12] = Staphylococcus aureus; read-out: MIC S. aureus BAA-1556 (USA300-Type MRSA, FQ-R)

Compound	MIC [1]	MIC [2]	MIC [3]	MIC [4, 8]	MIC [5, 9]	MIC [6, 10]	MIC [7, 11]	other results
Cc1c(-c2ccc3[nH]nc(C4CC4)c3c2)ccn2c(=O)c(C(=O)[O-])cc(C3CC3)c12.[K+] [Compound 71K salt, potassium 8-(3-cyclopropyl-1H-indazol-5-yl)-1-cyclopropyl-9-methyl-4-oxo-4H-quinolizine-3-carboxylate]	≤ 4 ng/mL	2 µg/mL	0.5 µg/mL	≤ 4 ng/mL	> 8 µg/mL	–	–	–
CNc1ccc(-c2ccn3c(=O)c(C(=O)[O-])cc(C4CC4)c3c2C)cc1C.[K+] [Compound 69K salt, potassium 8-(3-methyl-4-(methylamino)phenyl)-1-cyclopropyl-9-methyl-4-oxo-4H-quinolizine-3-carboxylate]	≤ 4 ng/mL	1 µg/mL	0.25 to 0.5 µg/mL	≤ 4 ng/mL	4 µg/mL	0.25 µg/mL	–	–
COc1c(-c2ccc(N)nc2)ccn2c(=O)c(C(=O)[O-])cc(C3CC3)c12.[K+] [Compound 89K salt, potassium 8-(6-amino-pyridin-3-yl)-1-cyclopropyl-9-methoxy-4-oxo-4H-quinolizine-3-carboxylate]	32 ng/mL	4 µg/mL	0.5 µg/mL	32 ng/mL	8 µg/mL	2 µg/mL	–	–
Cc1cn2c(=O)c(C(=O)[O-])cc(C3CC3)c2c(C)c1-c1ccc(N)nc1.[K+] [Compound 87K salt, potassium 8-(6-amino-pyridin-3-yl)-1-cyclopropyl-7,9-dimethyl-4-oxo-4H-quinolizine-3-carboxylate]	64 ng/mL	4 µg/mL	0.25 µg/mL	64 ng/mL	8 µg/mL	8 µg/mL	–	–
Cc1c(-c2cccc(O)c2)ccn2c(=O)c(C(=O)[O-])cc(C3CC3)c12.[K+] [Compound 56K salt, potassium 1-cyclopropyl-8-(3-hydroxyphenyl)-9-methyl-4-oxo-4H-quinolizine-3-carboxylate]	8 ng/mL	0.25 µg/mL	–	8 ng/mL	2 µg/mL	–	0.032 µg/mL	–
Cc1n[nH]c2ccc(-c3ccn4c(=O)c(C(=O)[O-])cc(C5CC5)c4c3C)cc12.[K+] [Compound 80K salt, potassium 8-(3-methyl-1H-indazol-5-yl)-1-cyclopropyl-9-methyl-4-oxo-4H-quinolizine-3-carboxylate]	≤ 4 ng/mL	1 µg/mL	0.25 µg/mL	≤ 4 ng/mL	4 µg/mL	–	0.064 µg/mL	–
Cc1c(-c2ccc(O)cc2)c(F)cn2c(=O)c(C(=O)[O-])cc(C3CC3)c12.[K+] [Compound 61K salt, potassium 8-(4-hydroxyphenyl)-1-cyclopropyl-7-fluoro-9-methyl-4-oxo-4H-quinolizine-3-carboxylate]	–	0.5 µg/mL	–	–	2 µg/mL	0.064 µg/mL	0.032 µg/mL	–
Cc1cn2c(=O)c(C(=O)[O-])cc(C3CC3)c2c(C)c1-c1ccc2[nH]ncc2c1.[K+] [Compound 88K salt, potassium 8-(1H-indazol-5-yl)-1-cyclopropyl-7,9-dimethyl-4-oxo-4H-quinolizine-3-carboxylate]	8 ng/mL	1 µg/mL	0.5 µg/mL	8 ng/mL	4 µg/mL	0.5 µg/mL	–	–
Cc1c(-c2ccc(N3CCNCC3)nc2)ccn2c(=O)c(C(=O)[O-])cc(C3CC3)c12.[K+] [Compound 84K salt, potassium 8-(6-(piperazin-1-yl)pyridin-3-yl)-1-cyclopropyl-9-methyl-4-oxo-4H-quinolizine-3-carboxylate]	–	8 µg/mL	2 µg/mL	–	8 µg/mL	2 µg/mL	0.125 to 0.25 µg/mL	–
COc1cc(-c2ccn3c(=O)c(C(=O)[O-])cc(C4CC4)c3c2C)ccc1O.[K+] [Compound 66K salt, potassium 8-(4-hydroxy-3-methoxyphenyl)-1-cyclopropyl-9-methyl-4-oxo-4H-quinolizine-3-carboxylate]	8 ng/mL	1 µg/mL	0.5 µg/mL	8 ng/mL	4 µg/mL	0.25 µg/mL	–	–
Cc1c(-c2ccc(CN)s2)ccn2c(=O)c(C(=O)[O-])cc(C3CC3)c12.[K+] [Compound 13K salt, potassium 8-(5-(aminomethyl)thiophen-2-yl)-1-cyclopropyl-9-methyl-4-oxo-4H-quinolizine-3-carboxylate]	16 ng/mL	0.5 µg/mL	–	16 ng/mL	1 µg/mL	0.5 µg/mL	0.016 µg/mL	–
Cc1c(-c2ccc3c(c2)CCN3)ccn2c(=O)c(C(=O)[O-])cc(C3CC3)c12.[K+] [Compound 77K salt, potassium 8-(indolin-5-yl)-1-cyclopropyl-9-methyl-4-oxo-4H-quinolizine-3-carboxylate]	16 ng/mL	1 µg/mL	0.25 µg/mL	16 ng/mL	4 µg/mL	0.5 µg/mL	–	–
CC(=O)NCc1ccc(-c2ccn3c(=O)c(C(=O)[O-])cc(C4CC4)c3c2C)cc1.[K+] [Compound 64K salt, potassium 8-(4-(Acetamidomethyl)phenyl)-1-cyclopropyl-9-methyl-4-oxo-4H-quinolizine-3-carboxylate]	32 ng/mL	2 µg/mL	0.5 µg/mL	32 ng/mL	8 µg/mL	0.5 µg/mL	–	–
Cc1c(-c2ccc(CN)cc2)c(F)cn2c(=O)c(C(=O)[O-])cc(C3CC3)c12.[K+] [Compound 6K salt]	–	–	–	–	–	–	–	MIC B. thailandensis E264 [2]: 4 µg/mL; MIC S. aureus BAA-1556 (USA300-Type MRSA, FQ-R) [6]: 1 µg/mL; MIC E. coli ATCC 25922 [7]: 0.064 to 0.125 µg/mL; MIC A. baumannii ATCC 19606 [3]: 1 µg/mL; MIC S. aureus ATCC 43300 (MRSA, FQ-S) [4]: 0,064 μg/mL
O=C(O)c1cn(C2CC2)c2cc(N3CCNCC3)c(F)cc2c1=O [Ciprofloxacin, reference compound]	–	–	–	–	–	–	–	MIC [6, 12]: > 8 µg/mL
Cc1cc(-c2ccn3c(=O)c(C(=O)[O-])cc(C4CC4)c3c2C)cnc1N.[K+] [Compound 79K salt, potassium 8-(6-amino-5-methylpyridin-3-yl)-1-cyclopropyl-9-methyl-4-oxo-4H-quinolizine-3-carboxylate]	≤ 4 ng/mL	0.5 µg/mL	0.064 µg/mL	≤ 4 ng/mL	2 µg/mL	–	0.016 µg/mL	–
Cc1c(-c2ccc3c(cnn3C)c2)ccn2c(=O)c(C(=O)[O-])cc(C3CC3)c12.[K+] [Compound 81K salt, potassium 8-(1-methyl-1H-indazol-5-yl)-1-cyclopropyl-9-methyl-4-oxo-4H-quinolizine-3-carboxylate]	≤ 4 ng/mL	0.25 µg/mL	–	≤ 4 ng/mL	2 µg/mL	0.064 µg/mL	0.064 µg/mL	–
C[C@H]1c2cccc(O)c2C(=O)C2=C(O)[C@]3(O)C(=O)C(C(N)=O)=C(O)[C@@H](N(C)C)[C@@H]3[C@@H](O)[C@@H]21 [Doxycycline, reference compound]	–	2 µg/mL (≈ 4.5 µM)	–	–	–	–	–	MIC [6, 12]: 4 µg/mL (≈ 9 µM); MIC ([7]; Escherichia coli, ATCC25922; read-out: MIC E. coli ATCC 25922): 1 µg/mL (≈ 2.25 µM); MIC ([4]; Staphylococcus aureus; read-out: MIC S. aureus ATCC 43300 (MRSA, FQ-S)): 250 ng/mL (≈ 0.563 µM); MIC ([5]; Pseudomonas aeruginosa, ATCC27853; read-out: MIC P. aeruginosa ATCC 27853): > 8 µg/mL
COc1c(-c2ccc3[nH]ncc3c2)ccn2c(=O)c(C(=O)[O-])cc(C3CC3)c12.[K+] [Compound 90K salt, potassium 8-(1H-indazol-5-yl)-1-cyclopropyl-9-methoxy-4-oxo-4H-quinolizine-3-carboxylate]	8 ng/mL	2 µg/mL	0.5 µg/mL	8 ng/mL	4 µg/mL	0.25 µg/mL	–	–
Cc1c(-c2ccc(O)c(F)c2)ccn2c(=O)c(C(=O)[O-])cc(C3CC3)c12.[K+] [Compound 70K salt, potassium 8-(3-fluoro-4-hydroxyphenyl)-1-cyclopropyl-9-methyl-4-oxo-4H-quinolizine-3-carboxylate]	≤ 4 ng/mL	0.25 µg/mL	–	≤ 4 ng/mL	1 µg/mL	0.064 µg/mL	0.032 µg/mL	–
Cc1c(C2=CCNCC2)c(F)cn2c(=O)c(C(=O)[O-])cc(C3CC3)c12.[K+] [Compound 62K salt, potassium 8-(1,2,3,6-tetrahydropyridin-4-yl)-1-cyclopropyl-7-fluoro-9-methyl-4-oxo-4H-quinolizine-3-carboxylate]	250 ng/mL	2 µg/mL	1 µg/mL	–	1 µg/mL	4 µg/mL	0.032 µg/mL	–
CNc1ccc(-c2ccn3c(=O)c(C(=O)[O-])cc(C4CC4)c3c2C)cn1.[K+] [Compound 78K salt, potassium 8-(6-(methylamino)pyridin-3-yl)-1-cyclopropyl-9-methyl-4-oxo-4H-quinolizine-3-carboxylate]	8 ng/mL	0.5 µg/mL	–	8 ng/mL	2 µg/mL	–	0.064 to 0.125 µg/mL	–
Cc1c(-c2ccc3sc(N)nc3c2)ccn2c(=O)c(C(=O)[O-])cc(C3CC3)c12.[K+] [Compound 73K salt, potassium 8-(2-aminobenzo[d]thiazol-5-yl)-1-cyclopropyl-9-methyl-4-oxo-4H-quinolizine-3-carboxylate]	≤ 4 ng/mL	0.5 µg/mL	–	≤ 4 ng/mL	2 µg/mL	0.064 µg/mL	0.032 µg/mL	–
